Assays:
Experiment in all cases: biochemical
Design in all cases: Ubiquigent DUB profiler selectivity panel, remaining enzyme activity as % of control
Conditions in all cases: read-out: % of control remaining
[1] = molecular target: T1, USP27x (Homo sapiens, UniProt A6NNY8)
T1 sequence (A6NNY8 1-438): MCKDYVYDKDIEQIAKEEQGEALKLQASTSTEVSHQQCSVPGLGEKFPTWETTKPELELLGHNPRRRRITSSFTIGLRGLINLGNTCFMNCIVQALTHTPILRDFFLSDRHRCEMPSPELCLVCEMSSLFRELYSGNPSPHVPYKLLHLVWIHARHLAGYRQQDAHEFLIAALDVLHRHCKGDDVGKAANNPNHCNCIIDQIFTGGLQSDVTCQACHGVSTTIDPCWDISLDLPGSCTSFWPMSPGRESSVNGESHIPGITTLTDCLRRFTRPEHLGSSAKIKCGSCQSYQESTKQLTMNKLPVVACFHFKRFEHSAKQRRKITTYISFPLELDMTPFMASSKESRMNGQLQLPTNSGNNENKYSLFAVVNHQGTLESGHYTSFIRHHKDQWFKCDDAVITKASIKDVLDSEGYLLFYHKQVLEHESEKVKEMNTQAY
Description: (§1) Previous work has reported IC50 values for a series of benzosulphonamide inhibitors, of which all those <1 μM were screened for selectivity, in comparison to three other USP family members ([20], [21]). We have selected one of these compounds (CMPD-39, Fig 1A) for a more rigorous test of selectivity provided by the Ubiquigent DUB profiler screening platform comprising >40 DUBs. […] To test engagement of the inhibitor with USP30 applied to intact cells, we assayed competition with Ub-PA (Ub-propargylamide). Ub-PA covalently binds to the USP30 active site leading to a characteristic upshift on a SDS–PAGE gel ([22]). If a drug blocks access to the catalytic site, then the probe modification is blocked and the apparent molecular weight of USP30 shifts down accordingly. […] A robust proxy read-out for target engagement is the enhancement of TOMM20 ubiquitylation after mitochondrial depolarization ([6], [16]). This second assay indicates a maximal effect with 200 nM CMPD-39 applied to RPE1-YFP-PRKN cells (Fig 1D).  Figure 1. CMPD-39 is a selective USP30 inhibitor. (A) Chemical structure of CMPD-39. (B) DUB specificity screen (DUB profiler, Ubiquigent) with 1-100 μM CMPD-39. […] Samples were incubated with CMPD-39 for 2 h at the indicated concentrations, then incubated with HA-Ub-PA probe for 10 min at 37°C and immunoblotted as shown. Red arrow indicates unbound USP30; blue arrow represents probe bound USP30. (D) Inhibition of USP30 enhances the ubiquitylation of TOMM20 in YFP-PRKN over-expressing hTERT-RPE1 cells in a concentration dependent manner in response to mitophagy induction. Cells were treated for 1 h with DMSO or antimycin A and oligomycin A (AO; 1 μM each) in the absence or presence of CMPD-39 at the indicated concentrations, lysed, and analyzed by Western blotting. Black arrow indicates unmodified TOMM20, ubiquitylated species are indicated by red (mono-ubiquitylated) or blue arrow heads. […] Source data are available for this figure.

[2] = molecular target: T2, AMSH-LP (+Zinc) (Homo sapiens, UniProt Q96FJ0)
T2 construct: gene STAMBPL1; +Zinc
T2 sequence (Q96FJ0 1-436): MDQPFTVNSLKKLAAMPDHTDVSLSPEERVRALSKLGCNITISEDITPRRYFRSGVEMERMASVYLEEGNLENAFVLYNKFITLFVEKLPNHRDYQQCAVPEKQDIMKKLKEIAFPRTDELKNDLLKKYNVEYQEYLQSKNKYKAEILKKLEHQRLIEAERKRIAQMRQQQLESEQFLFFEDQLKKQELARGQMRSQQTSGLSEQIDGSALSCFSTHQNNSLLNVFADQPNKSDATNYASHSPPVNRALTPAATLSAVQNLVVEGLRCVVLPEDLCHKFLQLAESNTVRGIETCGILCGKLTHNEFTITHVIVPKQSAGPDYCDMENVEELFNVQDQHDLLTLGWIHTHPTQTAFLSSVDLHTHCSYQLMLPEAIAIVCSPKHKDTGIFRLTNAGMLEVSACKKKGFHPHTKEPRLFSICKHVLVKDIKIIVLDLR
Description: as §1

[3] = molecular target: USP1/UAF1 (Homo sapiens, UniProt O94782)
Chain of USP1/UAF1 (O94782 whole entry): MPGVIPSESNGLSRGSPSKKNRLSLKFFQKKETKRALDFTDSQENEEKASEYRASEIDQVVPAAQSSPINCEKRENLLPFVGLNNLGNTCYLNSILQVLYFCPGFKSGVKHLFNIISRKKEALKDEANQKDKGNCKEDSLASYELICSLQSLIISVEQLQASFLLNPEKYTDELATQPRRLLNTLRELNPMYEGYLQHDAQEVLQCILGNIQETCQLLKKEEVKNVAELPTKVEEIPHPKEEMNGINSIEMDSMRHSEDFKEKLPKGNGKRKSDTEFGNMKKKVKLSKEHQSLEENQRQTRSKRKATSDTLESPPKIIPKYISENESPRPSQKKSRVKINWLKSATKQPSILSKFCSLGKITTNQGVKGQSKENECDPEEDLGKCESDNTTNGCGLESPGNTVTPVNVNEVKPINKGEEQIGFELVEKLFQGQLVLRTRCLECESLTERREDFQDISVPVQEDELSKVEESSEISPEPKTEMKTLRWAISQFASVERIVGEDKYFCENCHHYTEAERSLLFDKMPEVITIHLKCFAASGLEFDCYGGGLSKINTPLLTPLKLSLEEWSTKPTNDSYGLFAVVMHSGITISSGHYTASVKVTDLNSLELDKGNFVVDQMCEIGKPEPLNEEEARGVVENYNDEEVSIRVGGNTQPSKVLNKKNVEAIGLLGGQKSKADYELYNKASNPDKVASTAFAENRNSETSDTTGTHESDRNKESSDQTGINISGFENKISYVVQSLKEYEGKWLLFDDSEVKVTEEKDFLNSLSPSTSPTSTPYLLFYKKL
Chain of USP1/UAF1 (Q8TAF3 whole entry partner): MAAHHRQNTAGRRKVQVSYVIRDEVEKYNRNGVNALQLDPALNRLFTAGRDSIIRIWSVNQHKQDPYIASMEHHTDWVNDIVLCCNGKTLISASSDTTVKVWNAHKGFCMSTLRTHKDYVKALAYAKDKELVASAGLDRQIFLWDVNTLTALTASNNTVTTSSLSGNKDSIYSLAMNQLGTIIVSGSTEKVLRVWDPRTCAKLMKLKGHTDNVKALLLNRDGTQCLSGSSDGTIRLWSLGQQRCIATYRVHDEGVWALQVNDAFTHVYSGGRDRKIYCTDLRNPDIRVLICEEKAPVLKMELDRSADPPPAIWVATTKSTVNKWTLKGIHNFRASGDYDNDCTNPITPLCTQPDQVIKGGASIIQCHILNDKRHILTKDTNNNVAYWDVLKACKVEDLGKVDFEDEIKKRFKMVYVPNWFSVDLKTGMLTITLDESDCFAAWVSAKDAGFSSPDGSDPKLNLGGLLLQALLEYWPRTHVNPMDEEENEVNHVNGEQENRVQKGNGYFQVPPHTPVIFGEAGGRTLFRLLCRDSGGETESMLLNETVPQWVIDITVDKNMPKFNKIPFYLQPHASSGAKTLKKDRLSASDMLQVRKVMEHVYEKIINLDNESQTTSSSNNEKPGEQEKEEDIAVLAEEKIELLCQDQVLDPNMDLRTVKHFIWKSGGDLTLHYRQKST
Description: as §1

[4] = molecular target: T3, JOSD2 (Homo sapiens, UniProt Q8TAC2)
T3 sequence (Q8TAC2 1-188): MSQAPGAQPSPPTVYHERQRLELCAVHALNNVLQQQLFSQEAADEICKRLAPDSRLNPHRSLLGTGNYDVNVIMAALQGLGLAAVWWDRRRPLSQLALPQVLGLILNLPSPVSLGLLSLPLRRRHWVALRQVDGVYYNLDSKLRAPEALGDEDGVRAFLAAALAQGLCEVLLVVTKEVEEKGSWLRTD
Description: as §1

[5] = molecular target: T4, OTUD3 (Homo sapiens, UniProt Q5T2D3)
T4 sequence (Q5T2D3 1-398): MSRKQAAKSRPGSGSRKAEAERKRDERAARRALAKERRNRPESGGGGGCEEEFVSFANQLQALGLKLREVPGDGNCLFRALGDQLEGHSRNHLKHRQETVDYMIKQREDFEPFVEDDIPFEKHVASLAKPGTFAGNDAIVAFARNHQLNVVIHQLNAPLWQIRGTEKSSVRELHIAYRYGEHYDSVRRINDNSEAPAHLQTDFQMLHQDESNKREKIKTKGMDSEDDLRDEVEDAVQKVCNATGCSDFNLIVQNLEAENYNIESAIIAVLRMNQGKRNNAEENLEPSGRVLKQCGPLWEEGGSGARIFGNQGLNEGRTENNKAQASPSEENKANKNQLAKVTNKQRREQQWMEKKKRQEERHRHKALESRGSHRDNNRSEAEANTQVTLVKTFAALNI
Description: as §1

- remaining activity at 1 µM [1]: 108%
- remaining activity at 10 µM [1]: 93.8%
- remaining activity at 100 µM [1]: 93.4%
- remaining activity at 1 µM [2]: 106%
- remaining activity at 10 µM [2]: 101%
- remaining activity at 100 µM [2]: 97.8%
- remaining activity at 1 µM [3]: 98.6%
- remaining activity at 10 µM [3]: 95.6%
- remaining activity at 100 µM [3]: 97.4%
- remaining activity at 1 µM [4]: 105%
- remaining activity at 10 µM [4]: 90.8%
- remaining activity at 100 µM [4]: 94.3%
- remaining activity at 1 µM [5]: 105%
- remaining activity at 10 µM [5]: 101%
- remaining activity at 100 µM [5]: 107%
SMILES: CC(C)(C)NS(=O)(=O)c1ccc(NC(=O)[C@H](Cc2ccccc2)NC(=O)c2ccc(F)cc2)cc1 [compound 39, CMPD-39]

Reference: article PMC8645336, “Benchmarking a highly selective USP30 inhibitor for enhancement of mitophagy and pexophagy” (Life Science Alliance, 2021)
